The subject of the experiment is T1, TcCAT-1.
T1 construct: native, purified from wild ascocarps (Zarzadilla de Totana, Lorca, Murcia, Spain); large-subunit monofunctional heme catalase, Clade 2, L2 group
Briefly: H2O2 decomposition at […] nm. Particulars: 10 mM H2O2, 0.1 M sodium phosphate pH 7.0, room temperature. The experiment is classed as biochemical, Terfezia claveryi.

Turning to `NO` [hydroxylamine], the IC50 (usually the concentration needed to halve the response being measured) is 0.1 ± 0.01 µM.
`OCCS` [2-mercaptoethanol] returned an IC50 (text b58 prints 0.125 mM) of 130 ± 20 µM.

(Values after PMC6620010, “Purification and characterization of Terfezia claveryi TcCAT-1, a desert truffle catalase upregulated in mycorrhizal symbiosis” (PLoS ONE, 2019).)
